Measurements reported in patent publication US20080317836A1, “Topical compositions for anti-aging skin treatment” (DISCOVERY PARTNERS LLC, priority 2007, published 2008).

Assay: Stability to intense pulsed light (IPL) flashes, monitored by absorbance spectrum
Assay type: physicochemical
Details: ten pulses at maximum fluence of the flash lamp, visible spectral range
Protocol: A small study, on one subject, was conducted to see whether encapsulation of the sodium-copper-chlorophyllin within the liposome enhanced skin tanning, i.e., increased penetration and bioavailability of copper to the melanin-producing enzyme, […]. […] Three areas on the back received 1.0 MED simulated solar radiation: one area had received no treatment, one area had been pre-treated with the gel without liposome and the third area was treated with the liposome gel. An expert blinded grader scored the resulting skin tanning at 10 days after irradiation, using the Degree of Tanning scale 0 to 10 (darkest). […] Controlled dissociation of the sodium-copper-chlorophyllin complex is possible, in part because of the high stability of this complex. Normally, inorganic and organic copper salts, including copper-peptides, are not very stable with regard to binding copper. The inherent stability and lack of reactivity of sodium-copper-chlorophyllin is essential for this process to work successfully. […] Stability was monitored by measurement of the dye's full absorbance spectrum, since degradation of the dye would be detectable as changes in the absorbance spectrum.

absorbance spectrum after IPL flashes: remained unchanged
Substance: sodium-copper-chlorophyllin [sodium-copper-chlorphyllin]
